The inhibition is the drop in the measured response relative to a control, in per cent. What is called melting point is the temperature of the solid-liquid transition. What is called Ki is the dissociation constant of the complex between target and ligand, obtained from inhibition or displacement. The low end stands for tighter binding, the high end for weaker binding.

For 17 compounds, inhibition, melting point and Ki results are on record in US20140163012A1, “PYRIDO-/AZEPINO-BENZOFURAN AND PYRIDO-/AZEPINO-BENZOTHIOPHENE MCH-1 ANTAGONISTS, METHODS OF MAKING, AND USE THEREOF” (Albany Molecular Research, Inc., priority 2012, published 2014).

One data set has as its target human MCH-1 receptor (Homo sapiens, UniProt Q99705). As to the kind of experiment: Binding assay for human melanin-concentrating hormone (MCH-1) receptor, radioligand displacement on CHO-K1 cell membranes. The note with it: for inhibition at 1 µM: read-out: MCH1 % inhibition @ 1 uM. A general note: Loss of bound radioactivity is the signal in a displacement assay; it reports binding, not function.

The structures appear in SMILES notation. A value given as a limit tells only on which side of the number the result lay.

Chain of human MCH-1 receptor (Q99705 whole entry): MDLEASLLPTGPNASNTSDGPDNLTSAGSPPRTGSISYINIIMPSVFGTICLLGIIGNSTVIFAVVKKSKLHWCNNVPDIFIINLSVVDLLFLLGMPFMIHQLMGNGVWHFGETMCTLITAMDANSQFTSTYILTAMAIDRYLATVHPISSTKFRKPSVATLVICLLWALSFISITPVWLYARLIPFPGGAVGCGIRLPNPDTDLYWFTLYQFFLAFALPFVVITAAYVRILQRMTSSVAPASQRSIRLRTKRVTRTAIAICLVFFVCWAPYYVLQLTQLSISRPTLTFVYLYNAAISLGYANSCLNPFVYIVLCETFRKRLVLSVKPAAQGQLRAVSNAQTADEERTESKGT

For `Cl.O=c1cc(OCc2ccc(F)cn2)ccn1-c1ccc2sc3c(c2c1)CNCC3` [Example 68, 4-(5-Fluoropyridin-2-yl)methoxy-1-(1,2,3,4-tetrahydrobenzo[4,5]thieno[3,2-c]pyridin-8-yl)pyridin-2(1H)-one hydrochloride], the melting point was 165 to 167 °C. For the same compound, on human MCH-1 receptor, the inhibition at 1 µM worked out at 13%.

With `Cl.O=c1cc(OCc2ccc(F)cn2)ccn1-c1ccc2sc3c(c2c1)CCNCC3` [Example 69, 4-(5-Fluoropyridin-2-yl)methoxy-1-(2,3,4,5-tetrahydro-1H-benzo[4,5]thieno[2,3-d]azepin-9-yl)pyridin-2(1H)-one hydrochloride], the melting point was in the range of 228 to 230 °C. Moreover, the inhibition at 1 µM on human MCH-1 receptor was 69%.

Compound `Cl.O=C1CN(CCc2ccc(F)cn2)CCN1c1ccc2c3c(oc2c1)CCNC3` [Example 70, 4-(2-(5-Fluoropyridin-2-yl)ethyl)-1-(1,2,3,4-tetrahydrobenzofuro[3,2-c]pyridin-7-yl)piperazin-2-one hydrochloride] displayed a melting point of 203 to 209 °C. For the same compound, the inhibition at 1 µM at human MCH-1 receptor stood at 66%.

In turn, `Cl.O=c1cc(-c2ccc(C(F)(F)F)cc2)ccn1-c1ccc2c3c(oc2c1)CCNC3` [Example 71, 1-(1,2,3,4-Tetrahydrobenzofuro[3,2-c]pyridin-7-yl)-4-(4-(trifluoromethyl)phenyl)pyridin-2(1H)-one hydrochloride] came in with a melting point of over 300 °C. The same compound yielded an inhibitory constant (Ki) on human MCH-1 receptor of 7.5 nM.

`Cl.O=c1cc(-c2ccc(C(F)(F)F)nn2)ccn1-c1ccc2c3c(oc2c1)CCNC3` [Example 88, 1-(1,2,3,4-Tetrahydrobenzofuro[3,2-c]pyridin-7-yl)-4-(6-(trifluoromethyl)pyridazin-3-yl)pyridin-2(1H)-one hydrochloride] gave a melting point of over 300 °C. Also, the inhibition at 1 µM at human MCH-1 receptor turned out to be 41%.

In turn, `Cl.O=C1CN(CCc2ccc(Cl)cn2)CCN1c1ccc2c3c(oc2c1)CCNC3` [Example 91, 4-(2-(5-Chloropyridin-2-yl)ethyl)-1-(1,2,3,4-tetrahydrobenzofuro[3,2-c]pyridin-7-yl)piperazin-2-one hydrochloride] registered a melting point of 220 to 223 °C. Affinity at human MCH-1 receptor was put at a Ki of 84 nM.

Compound `Cl.O=c1nc(CCc2ccc(Cl)cn2)ccn1-c1ccc2c3c(oc2c1)CCNC3` [Example 101, 4-(2-(5-Chloropyridin-2-yl)ethyl)-1-(1,2,3,4-tetrahydrobenzofuro[3,2-c]pyridin-7-yl)pyrimidin-2(1H)-one hydrochloride] yielded a melting point of 155 to 160 °C. At human MCH-1 receptor, this compound displayed a Ki of 20 nM.

As to `Cl.O=c1cc(CCc2ccc(F)cn2)ccn1-c1ccc2c3c(oc2c1)CCNC3` [Example 102, 4-(2-(5-Fluoropyridin-2-yl)ethyl)-1-(1,2,3,4-tetrahydrobenzofuro[3,2-c]pyridin-7-yl)pyridin-2(1H)-one hydrochloride], the melting point was 165 to 169 °C. Besides, affinity on human MCH-1 receptor was put at a Ki of 29 nM.

The compound `Cl.O=c1cc(CCc2ccccc2)ccn1-c1ccc2c3c(oc2c1)CCNC3` [Example 104, 4-Phenethyl-1-(1,2,3,4-tetrahydrobenzofuro[3,2-c]pyridin-7-yl)pyridin-2(1H)-one hydrochloride] registered a melting point of 283 to 289 °C. The same compound displayed a Ki on human MCH-1 receptor of 6.6 nM.

`Cl.O=c1cc(CCc2ccc(Cl)cn2)ccn1-c1ccc2c3c(oc2c1)CCNC3` [Example 105, 4-(2-(5-Chloropyridin-2-yl)ethyl)-1-(1,2,3,4-tetrahydrobenzofuro[3,2-c]pyridin-7-yl)pyridin-2(1H)-one hydrochloride] gave a melting point of 285 to 288 °C. Besides, the Ki at human MCH-1 receptor came to 12 nM.

`COc1ccc(-c2ccn(-c3ccc4c5c(oc4c3)CCNC5)c(=O)c2)c(F)c1.Cl` [Example 111, 4-(2-Fluoro-4-methoxyphenyl)-1-(1,2,3,4-tetrahydrobenzofuro[3,2-c]pyridin-7-yl)pyridin-2(1H)-one hydrochloride] yielded a melting point of 282 to 284 °C. In addition, at human MCH-1 receptor, affinity was put at a Ki of 16 nM.

Take `COc1ccc(-c2ccn(-c3ccc4c5c(oc4c3)CCNC5)c(=O)c2)c(Cl)c1.Cl` [Example 112, 4-(2-Chloro-4-methoxyphenyl)-1-(1,2,3,4-tetrahydrobenzofuro[3,2-c]pyridin-7-yl)pyridin-2(1H)-one hydrochloride]: the melting point was 294 to 297 °C. Also, on human MCH-1 receptor, the Ki is 6.9 nM.

Turning to `Cl.O=c1cc(OCc2ccc(C(F)(F)F)nn2)ccn1-c1ccc2c3c(oc2c1)CCNC3` [Example 113, 1-(1,2,3,4-Tetrahydrobenzofuro[3,2-c]pyridin-7-yl)-4-((6-(trifluoromethyl)pyridazin-3-yl)methoxy)pyridin-2(1H)-one hydrochloride], the melting point fell in the range of 289 to 291 °C. The affinity on human MCH-1 receptor, expressed as Ki, was 20 nM.

With `Cc1cc(OC(F)(F)F)ccc1-c1ccn(-c2ccc3c4c(oc3c2)CCNC4)c(=O)c1.Cl` [Example 114, 4-(2-Methyl-4-(trifluoromethoxy)phenyl)-1-(1,2,3,4-tetrahydrobenzofuro[3,2-c]pyridin-7-yl)pyridin-2(1H)-one hydrochloride], the melting point fell in the range of 299 to 301 °C. On human MCH-1 receptor, this compound showed a Ki of 7.3 nM.

For `Cl.O=c1cc(OCc2ccccc2)ccn1-c1ccc2sc3c(c2c1)CNCCC3` [Example 118, 4-Benzyloxy-1-(2,3,4,5-tetrahydro-1H-benzo[4,5]thieno[3,2-c]azepin-9-yl)pyridin-2(1H)-one hydrochloride], the melting point was 176 to 178 °C. Also, the inhibition at 1 µM at human MCH-1 receptor worked out at 7.7%.

As for `Cl.O=c1cc(OCc2ccc(F)cn2)ccn1-c1ccc2sc3c(c2c1)CNCCC3` [Example 119, 4-((5-Fluoropyridin-2-yl)methoxy)-1-(2,3,4,5-tetrahydro-1H-benzo[4,5]thieno[3,2-c]azepin-9-yl)pyridin-2(1H)-one hydrochloride], the melting point is 170 to 172 °C. In addition, the inhibition at 1 µM at human MCH-1 receptor was -2.6%.

In the case of `Cl.O=c1cc(OCc2ccc(F)cn2)ccn1-c1ccc2sc3c(c2c1)CCCNC3` [Example 120, 4-(5-Fluoropyridin-2-ylmethoxy)-1-(2,3,4,5-tetrahydro-1H-benzo[4,5]thieno[2,3-c]azepin-7-yl)pyridin-2(1H)-one hydrochloride], the melting point is 180 to 182 °C. Moreover, on human MCH-1 receptor, the inhibition at 1 µM was 1.3%.
